# Entries after “also recorded” stand apart in the source; their conditions may differ. Counter-ions that a name gives are not always drawn.
# What was measured:
# [1] = Hygroscopicity test (VTI SGA-100); format: physicochemical; conditions: for hygroscopicity (in words): 5 to 95% of relative humidity; for relative humidity from which an increase in the weight is observed: measurement interval 5% of relative humidity; for stability of the crystal (in words): judged with the hygroscopicity result
# Protocol: The hygroscopicity was measured using VTI SGA-100 under the following conditions. Temperature: 25° C., measurement range: from 5 to 95% of relative humidity, measurement interval: 5% of relative humidity.
# [2] = test system: Male kk mice; assay: Hypoglycemic test in kk mice (insulin resistance model: obesity and hyperglycemia); format: in vivo; conditions: oral, once daily for 7 days, blood glucose 15 to 18 hours after final administration, n=6
# Protocol: Hypoglycemic Test in kk Mice (Insulin Resistance Model: Obesity and Hyperglycemia) Male kk mice (blood glucose level: 200 mg/dL or more) were measured for blood glucose level under feeding and then randomly classified into groups. The drug to be tested was compulsorily orally administered once daily for 7 days, and the blood glucose level after 15 to 18 hours from the final administration was compared with that before the administration (n=6). The blood was collected from a tail vein of the mouse using a glass capillary (previously treated with heparin), a protein was removed therefrom, and the amount of glucose in the supernatant (mg/dL) was measured by colorimetric determination by means of the glucose oxidase method. Further, a dose by which the blood glucose level was reduced by 30% as compared with that before the administration of the drug to be tested was expressed as an ED30 value.
# [3] = Solubility in recrystallization solvent; format: physicochemical; conditions: 37% to 50% ethanol aqueous solution, as compared with the α-form crystal
# [4] = 25° C., listed as (R)-2-(2-aminothiazol-1-4-yl)-4′-[2-[(2-hydroxy-2-phenylethyl)amino]ethyl]-aceta, dihydrochloride
structure (smiles),measurement,setting,value
"Nc1nc(CC(=O)Nc2ccc(CCNC[C@H](O)c3ccccc3)cc2)cs1 [dihydrochloride crystal, (R)-2-(2-aminothiazol-4-yl)-4′-[2-[(2-hydroxy-2-phenylethyl)amino]ethyl]-acetanilide dihydrochloride, reference compound]",hygroscopicity (in words),"[1]; 25° C., dihydrochloride",strongly hygroscopic
same,hygroscopicity (in words),[1]; [4],strong hygroscopicity
same,hygroscopicity (in words),"[1]; 25° C., listed as (R)-2-(2-aminothiazol-4-yl)-4′-[2-[(2-hydroxy-2-phenylethyl)amino]ethyl]-acetani, dihydrochloride",strong hygroscopicity
same,hygroscopicity (in words),"[1]; 25° C., listed as dihydrochloride, dihydrochloride",strong hygroscopicity
same,moisture held,"[1]; 25° C., at a relative humidity of 90%",about 14%
same,relative humidity from which an increase in the weight is observed,"[1]; 25° C., dihydrochloride",80%
same,relative humidity from which an increase in the weight is observed,[1]; [4],about 80%
same,stability of the crystal (in words),[1]; dihydrochloride,unstable
same,stability of the crystal (in words),"[1]; listed as (R)-2-(2-aminothiazol-4-yl)-4′-[2-[(2-hydroxy-2-phenylethyl)amino]ethyl]-acetani, dihydrochloride",unstable
same,stability of the crystal (in words),"[1]; listed as dihydrochloride, dihydrochloride",unstable
"Nc1nc(CC(=O)Nc2ccc(CCNC[C@H](O)c3ccccc3)cc2)cs1 [α-form crystal, (R)-2-(2-aminothiazol-4-yl)-4′-[2-[(2-hydroxy-2-phenylethyl)amino]ethyl]acetanilide]",hygroscopicity (in words),[1]; 25° C.,not exhibiting hygroscopicity; also recorded: does not exhibit hygroscopicity; also recorded: did not exhibit hygroscopicity
same,moisture-holding amount,"[1]; 25° C., over the entire range of relative humidity from 5% to 95%",not more than 0.2%
same,stability of the crystal (in words),[1],stable; also recorded: excellent in stability
same,ED30 value (dose by which the blood glucose level was reduced by 30% as compared with that before the administration),[2],not more than 3.5 mg/kg/day
"Nc1nc(CC(=O)Nc2ccc(CCNC[C@H](O)c3ccccc3)cc2)cs1 [β-form crystal, (R)-2-(2-aminothiazol-4-yl)-4′-[2-[(2-hydroxy-2-phenylethyl)amino]ethyl]acetanilide]",solubility in a recrystallization solvent,[3],high solubility
same,hygroscopicity (in words),[1]; 25° C.,weak hygroscopicity
same,relative humidity from which an increase in the weight is observed,[1]; 25° C.,about 20%
same,moisture held,"[1]; 25° C., relative humidity not stated for the value (measurement range 5 to 95%)",about 3%

# — patent US7982049B2, “α-form or β-form crystal of acetanilide derivative” (Astellas Pharma Inc., priority 2001, dated 2011)
